Measurements as given in article PMC4230991, “In Silico Design and Biological Evaluation of a Dual Specificity Kinase Inhibitor Targeting Cell Cycle Progression and Angiogenesis” (PLoS ONE, 2014).
pIC50: −log10 of the molar value. Like-named read-outs stand apart in the source and are kept apart here. Each block holds one compound with its values, some of them ahead of it.

What was measured:
recombinant human VEGFR2 = molecular target: T1, recombinant human VEGFR2 (Homo sapiens, UniProt P35968); assay: 33P in vitro kinase HotSpot profiling assay, VEGFR2; assay type: biochemical
T1 construct: purchased Reaction Biology
T1 sequence (P35968 20-1356): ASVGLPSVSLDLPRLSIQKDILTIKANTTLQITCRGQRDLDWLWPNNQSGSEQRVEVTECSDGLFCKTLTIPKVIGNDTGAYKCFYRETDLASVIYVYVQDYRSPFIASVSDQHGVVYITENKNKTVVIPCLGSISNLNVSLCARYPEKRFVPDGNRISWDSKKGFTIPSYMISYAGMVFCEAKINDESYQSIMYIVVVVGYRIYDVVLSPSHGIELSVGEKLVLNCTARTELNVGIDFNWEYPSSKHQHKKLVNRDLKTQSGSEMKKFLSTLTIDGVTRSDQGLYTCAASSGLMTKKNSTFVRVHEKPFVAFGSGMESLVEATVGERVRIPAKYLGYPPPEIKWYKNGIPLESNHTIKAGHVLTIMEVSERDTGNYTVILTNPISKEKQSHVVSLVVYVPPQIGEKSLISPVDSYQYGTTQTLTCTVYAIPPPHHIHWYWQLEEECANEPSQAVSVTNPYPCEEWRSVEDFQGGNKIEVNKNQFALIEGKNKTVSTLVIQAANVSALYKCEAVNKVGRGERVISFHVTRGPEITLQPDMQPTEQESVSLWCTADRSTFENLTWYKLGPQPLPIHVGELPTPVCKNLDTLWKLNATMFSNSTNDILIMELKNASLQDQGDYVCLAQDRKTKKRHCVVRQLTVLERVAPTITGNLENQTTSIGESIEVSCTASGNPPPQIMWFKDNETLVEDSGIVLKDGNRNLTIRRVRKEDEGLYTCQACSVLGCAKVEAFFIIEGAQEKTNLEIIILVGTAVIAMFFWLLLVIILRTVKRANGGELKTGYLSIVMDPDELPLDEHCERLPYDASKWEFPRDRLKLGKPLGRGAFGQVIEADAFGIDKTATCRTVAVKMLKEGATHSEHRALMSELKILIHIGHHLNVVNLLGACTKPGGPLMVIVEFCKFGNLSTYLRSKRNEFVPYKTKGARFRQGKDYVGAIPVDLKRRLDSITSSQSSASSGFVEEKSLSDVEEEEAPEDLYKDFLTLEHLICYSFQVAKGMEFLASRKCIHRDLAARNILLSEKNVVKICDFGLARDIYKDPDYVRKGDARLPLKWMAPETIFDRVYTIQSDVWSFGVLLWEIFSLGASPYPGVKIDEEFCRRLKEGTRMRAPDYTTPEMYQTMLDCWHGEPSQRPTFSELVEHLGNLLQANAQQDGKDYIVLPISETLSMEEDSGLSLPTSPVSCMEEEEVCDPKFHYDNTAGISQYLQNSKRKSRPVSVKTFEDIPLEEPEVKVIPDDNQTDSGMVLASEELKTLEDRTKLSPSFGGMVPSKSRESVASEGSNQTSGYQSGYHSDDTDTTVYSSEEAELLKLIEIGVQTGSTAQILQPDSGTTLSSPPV

[1] = molecular target: T2, recombinant human CDK1/cyclin B complex (Homo sapiens, UniProt P06493); assay: 33P in vitro kinase HotSpot profiling assay, CDK1/cyclin B; assay type: biochemical; settings: [γ-33P]-ATP 10 µM; substrate histone H1; ten-point curves
T2 construct: purchased Reaction Biology
T2 sequence (P06493 whole entry): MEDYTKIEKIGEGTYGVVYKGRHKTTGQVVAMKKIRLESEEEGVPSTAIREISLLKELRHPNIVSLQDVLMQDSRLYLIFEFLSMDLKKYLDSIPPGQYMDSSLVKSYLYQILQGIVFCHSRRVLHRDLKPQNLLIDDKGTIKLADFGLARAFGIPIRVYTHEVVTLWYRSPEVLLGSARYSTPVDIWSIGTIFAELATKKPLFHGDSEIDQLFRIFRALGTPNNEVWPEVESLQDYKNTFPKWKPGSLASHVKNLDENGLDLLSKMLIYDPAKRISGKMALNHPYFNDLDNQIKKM
T2 sequence (P14635 whole entry partner): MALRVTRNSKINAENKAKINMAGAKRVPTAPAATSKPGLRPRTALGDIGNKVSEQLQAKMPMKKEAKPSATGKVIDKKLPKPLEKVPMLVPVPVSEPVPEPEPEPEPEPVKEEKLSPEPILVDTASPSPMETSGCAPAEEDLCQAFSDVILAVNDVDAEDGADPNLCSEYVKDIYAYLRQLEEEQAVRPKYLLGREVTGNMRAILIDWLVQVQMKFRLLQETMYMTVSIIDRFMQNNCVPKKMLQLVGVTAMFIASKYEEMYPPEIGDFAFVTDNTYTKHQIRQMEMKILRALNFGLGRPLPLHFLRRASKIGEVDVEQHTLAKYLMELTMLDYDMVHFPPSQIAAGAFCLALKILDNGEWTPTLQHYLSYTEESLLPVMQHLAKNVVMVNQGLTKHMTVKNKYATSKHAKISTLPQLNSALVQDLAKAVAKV

VEGFR2 = assay: Immunoblot of VEGF-A-stimulated VEGFR2 activation and downstream signaling in HUVECs; assay type: cell-based, human
Method: (§1) All experiments were conducted at <6 cell passages.
(§2) Figure 2 JK-31 inhibits growth factor-stimulated receptor activation and downstream signal transduction. (A) HUVECs were pre-treated with JK-31 (0, 0.1, 1, 10 or 50 µM) for 30 min followed by 7.5 min stimulation with VEGF-A (25 ng/ml) in the presence of JK-31. Total cell lysates were prepared and processed for immunoblotting. Levels of phosphorylated VEGFR2, PLCγ1, Akt and ERK were analysed using phospho-specific antibodies. Membranes were stripped and re-probed for total protein levels and a loading control (α-tubulin). (B) Densitometric quantification of phosphorylated VEGFR2-pY1175 levels in response to VEGF-A and JK-31 treatment. Error bars represent ± SEM (n = 4; ***p<0.001). (C-D) JK-31 inhibits FGF-stimulated intracellular signaling in endothelial cells. HUVECs were pre-treated with JK-31 (0, 0.1, 1, 10 or 50 µM) for 30 min followed by 10 min stimulation with either (C) bFGF (50 ng/ml) or (D) aFGF (50 ng/ml) in the presence of JK-31. Cells were lysed and processed for immunoblotting. Representative immunoblots of three independent experiments are shown.

[2] = system: FGF-stimulated intracellular signaling; assay: Immunoblot of FGF (aFGF, bFGF)-stimulated ERK1/2 phosphorylation in HUVECs; assay type: cell-based, human; settings: JK-31 0.1-50 µM
Method: as §1, §2

IGF-1-mediated signaling = assay: Immunoblot of IGF-1-mediated signaling in HUVECs; assay type: cell-based, human; settings: JK-31 0.1-50 µM, IGF-1 100 ng/ml 10 min
Method: as §1
Supplementary file pone.0110997.s006.tif: Figure S6 Relative specificity of JK-31 for the VEGF-A-VEGFR2 signaling pathway. […] HUVECs were pre-treated with JK-31 (0, 0.1, 1, 10 or 50 µM) for 30 min followed by a 10 min stimulation with either (A) EGF (50 ng/ml) or (B) IGF-1 (100 ng/ml) in the presence of JK-31. Total cell lysates were prepared and processed for immunoblotting. Levels of phosphorylated Akt and ERK1/2 were analysed using phospho-specific antibodies. Membranes were stripped and re-probed for total protein levels and a loading control (α-tubulin). Representative immunoblots of three independent experiments are shown. (TIF) Click here for additional data file.

[3] = system: mouse aortic ring explants; assay: Ex vivo murine aortic ring angiogenesis assay; assay type: cell-based; settings: 10 µM and above, six days, Matrigel
Method: Three male five-month old wild type C57Bl/6 mice were humanely sacrificed followed by cervical dislocation. A thoraco-abdominal incision was made and the heart and aorta excised and stored in Hank's balanced buffer. The aortas were cleaned by removing connective tissue and adventitia from the exterior and each aorta was cut into 18–24 rings. Ring explants were embedded into growth-factor reduced Matrigel basement membrane matrix (Beckton Dickinson) in a 24-well plate and incubated for 45 min at 37°C to allow the Matrigel to set and the rings to adhere. […] Rings were photographed and the degree of sprouting measured using Cell∧B imaging software (Olympus, Tokyo, Japan). The mean of the three longest angiogenic sprouts on each ring was measured.
Figure 3 JK-31 inhibits angiogenesis in an ex vivo murine model and in vitro. […] (B) Absolute quantification of angiogenic sprout length. For each aortic ring, the mean of three longest sprouts was calculated. […] (D) Fluorescence microscopy analysis of endothelial cell phenotypes and filopodia formation during tubulogenesis in the presence of VEGF-A and JK-31. […] Quantification of (F) mean tubule branch length and (G) mean number of tubule branch points in response to JK-31 and exogenous growth factors. Light micrograph fields were chosen at random and quantification performed using Image J software. […]

HUVECs [4] = assay: Organotypic tubulogenesis assay (HUVEC-fibroblast co-culture); assay type: cell-based, human; settings: for inhibition at 10 µM / inhibition at 50 µM: Homo sapiens, HUVEC
Method: This assay was performed as previously described, [27]. Primary human foreskin fibroblasts (pHFF) were a gift from Gareth Howell (University of Leeds, UK) and were cultured routinely in DMEM containing 10% (v/v) FBS up to passage 10. In co-culture with HUVECs, the medium was replaced for endothelial cell growth medium (Promocell, Heidelberg, Germany).
Figure 3 JK-31 inhibits angiogenesis in an ex vivo murine model and in vitro. (A) Effects of JK-31 on ex vivo angiogenic sprouting from wild-type mouse aortic ring explants. Aortic rings were seeded onto Matrigel and treated with JK-31 (0, 1, 10 or 50 µM) for six days and imaged by phase-contrast microscopy. Freehand black lines delineate the outermost extent of sprouting. (B) Absolute quantification of angiogenic sprout length. For each aortic ring, the mean of three longest sprouts was calculated. Error bars represent ±SEM (n = 18; ***p<0.001). (C) JK-31 inhibits endothelial tube formation in vitro in response to exogenous VEGF-A. HUVECs were seeded onto a confluent layer of primary fibroblasts and treated with VEGF-A (10 ng/ml) for seven days in the presence of DMSO or JK-31 (1, 10 or 50 µM). Co-cultures were stained with CD31 antibody followed by HRP-conjugated secondary antibody and visualized by light microscopy using […] (DAB)-staining (see Materials and Methods). (D) Fluorescence microscopy analysis of endothelial cell phenotypes and filopodia formation during tubulogenesis in the presence of VEGF-A and JK-31. White arrowheads indicate vestigial lamellipodia-like structures. (E) JK-31 inhibits endothelial tube formation in vitro in response to exogenous bFGF (20 ng/ml). Treatment and processing was carried out as described above. Quantification of (F) mean tubule branch length and (G) mean number of tubule branch points in response to JK-31 and exogenous growth factors. Light micrograph fields were chosen at random and quantification performed using Image J software. Error bars represent ± SEM (n = 10; *p<0.05; **p<0.01; ***p<0.001) for each respective growth factor.

HUVECs [5] = assay: Scratch wound healing assay; assay type: cell-based, human; settings: 10 µM and above, 16 h
Method: Figure 4 JK-31 inhibits endothelial wound closure in vitro. (A) Scratch-wounded endothelial cell monolayers were incubated in either full growth medium (grey bars) or stimulated with 25 ng/ml VEGF-A (black bars) for 16 h in the presence of DMSO or JK-31 (1, 10 or 50 µM). Wounded cell monolayers were photographed before and after treatment and wound widths at each time point were measured using Image J software. Percentage wound closure was calculated by [(width before – width after)/width before] ×100. […] (B) Representative phase-contrast micrographs depicting wound closure over 16 h in the presence VEGF-A and either DMSO or JK-31 (10 µM).

HUVECs [6] = assay: MTS cell viability assay; assay type: cell-based, human; settings: two days (48 h), concentrations of up to 50 µM
Method: 2000 endothelial cells were seeded per well of a 96-well plate and cultured in ECGM overnight. ECGM was then aspirated and cells starved in MCDB131 +0.2% (w/v) BSA for 2 h. After 2 h, media was changed for ECGM with or without DMSO, plus or minus 100 nM, 1 µM, 10 µM or 50 µM JK-31 and cells incubated for 48 h. Then, 10 µl of MTS reagent (CellTiter 96 AQueous Non-Radioactive Cell Proliferation Assay, Promega, Madison, Wisconsin, USA) was added to each well after 44 h. After further incubation for 4-6 h, we monitored the color change caused by reduction of the yellow tetrazolium compound (MTS) by metabolically active cells to brown formazan. Change in color was monitored at 490 nm using a Tecan Sunrise multiwavelength 96-well plate reader (Tecan, Mannedorf, Switzerland).
(A) Relevant protein expression in HUVECs and MCF-7 cells. Total cell lysates were processed for immunoblotting. Membranes were probed with antibodies raised against VEGFR2, CDK1 and β-actin. Representative immunoblot was shown. (B) HUVECs were treated with DMSO or JK-31 (0.1, 1, 10, 50 µM) in full growth medium for 48 h followed by MTS assay and subsequent measurement of absorbance at OD490. Error bars represent ±SEM (n = 5). (TIF) Click here for additional data file.

HUVECs [7] = assay: Flow cytometry analysis of cell cycle progression, endothelial cells; settings: 48 h
Method: (§3) Cells were pelleted at 140 g at 4°C for 5 min and supernatant discarded. Cells were fixed in ice-cold 70% (v/v) ethanol added dropwise and stored at −20°C prior to analysis. Immediately before flow cytometry, cells were pelleted (140 g at 4°C for 5 min), supernatant removed and cells washed twice in 500 µl PBS. 100 µg/ml ribonuclease and 50 µg/ml propidium iodide (Sigma-Aldrich) was added to each sample and incubated for 2–3 h at 37°C. Cells were pelleted (140 g at 4°C for 5 min), supernatant removed and cells washed in 500 µl PBS before being resuspended in 500 µl PBS buffer containing 2.5 mM EDTA. Samples were gated and run at a low flow rate (<1000 events s^−1) on a Fortessa flow cytometer (Becton Dickinson, Oxford, UK) with multi-laser and detection capabilities. The information from 10000 events was collect and data was analyzed using ModFit software (Becton Dickinson).
(H) Quantification of cell cycle ratios after inhibitor treatment. Error bars represent ±SEM (n = 3). ***p<0.001; ****p<0.0001.

MCF-7 cells = assay: Flow cytometry analysis of cell cycle progression, breast cancer cells; settings: 48 h
Method: as §3
(H) Quantification of cell cycle ratios after inhibitor treatment. Error bars represent ±SEM (n = 3).). *p<0.05; **p<0.01; ***p<0.001; ****p<0.0001.

[8] = molecular target: T2, recombinant human CDK1/cyclin B complex; set-up: method as in PMID 16204078; settings: relative potency from IC50 values of a previous study; cited from earlier work
[9] = JK-31 10 or 50 µM, vs asynchronous controls

- pIC50 (recombinant human VEGFR2; [γ-33P]-ATP 10 µM, substrate poly[Glu:Tyr] (4:1), ten-point curves): 6.20
- Selectivity for VEGFR2 than CDK1 (recombinant human VEGFR2; relative potency from IC50 values): ~4 fold
- pIC50 [1]: 5.60
- Cellular IC50 relative to cell-free phosphorylation assay (VEGFR2; VEGF-A-stimulated VEGFR2 activation and downstream signaling in endothelial cells vs recombinant kinases): approximately 10 fold
Compound: CC(C)(C)c1ccc(C(=O)n2nc(Nc3ccccc3)nc2N)cc1 [JK-31, (5-amino-3-(phenylamino)-1H-1,2,4-triazol-1-yl)(4-(tert-butyl)phenyl)methanone]
- Inhibition of phosphorylation of residue Y1175 within VEGFR2 (VEGFR2; HUVECs, JK-31 10 µM and above, 30 min pre-treatment, VEGF-A 25 ng/ml 7.5 min): > 60%
- VEGF-A-stimulated signal transduction (PLCγ1-pY783, Akt-pS473, ERK1/2-pT202/pY204) (VEGFR2; HUVECs, JK-31 0.1-50 µM, VEGF-A 25 ng/ml 7.5 min): inhibited VEGF-A-stimulated signal transduction in a dose-dependent manner
- ERK1/2 phosphorylation in response to aFGF ([2]; aFGF 50 ng/ml 10 min): dose-dependent inhibition
- ERK1/2 phosphorylation in response to bFGF ([2]; bFGF 50 ng/ml 10 min): dose-dependent inhibition
- ERK1/2 phosphorylation in response to IGF-1 (IGF-1-mediated signaling): not in response to either EGF or IGF-1
- Inhibition of radial angiogenic sprout formation [3]: more than 40%
- Reduction of bFGF-stimulated branching (HUVECs [4]; 10 µM, bFGF 20 ng/ml): more than 90%
- Endothelial tubule phenotype (HUVECs [4]; 10 µM, in the presence of VEGF-A): aberrant hyper-branched endothelial tubule phenotype
- Reduction in branching (VEGF-A) (HUVECs [4]; 50 µM, VEGF-A 10 ng/ml, seven days): more than 80%
- Reduction of bFGF-stimulated branching (HUVECs [4]; 50 µM, bFGF 20 ng/ml): more than 90%
- inhibition at 10 µM (HUVECs [4]; 168 h, 10 µM, VEGF-A 10 ng/ml, seven days, read-out: Inhibition of VEGF-A-stimulated endothelial tube formation): ~35%
- inhibition at 50 µM (HUVECs [4]; 168 h, 50 µM, VEGF-A 10 ng/ml, seven days, read-out: Inhibition of VEGF-A-stimulated endothelial tube formation): > 80%
- inhibition at 10 µM (HUVECs [4]; 10 µM, bFGF 20 ng/ml, read-out: Inhibition of bFGF-stimulated endothelial tube formation): ~75%
- inhibition at 50 µM (HUVECs [4]; 50 µM, bFGF 20 ng/ml, read-out: Inhibition of bFGF-stimulated endothelial tube formation): > 95%
- VEGF-A-stimulated wound closure (HUVECs [5]; VEGF-A 25 ng/ml): completely inhibited
- Wound closure in full growth medium (HUVECs [5]; full growth medium): only partially inhibited
- Cytotoxic effects on endothelial cells (cell viability, MTS) (HUVECs [6]): no significant cytotoxic effects
- Number of cells present in G1 (HUVECs [7]; JK-31 10 or 50 µM): significant increase in the number of cells present in G1
- Proportion of cells in G2/M phase (HUVECs [7]; [9]): significant decrease in the proportion of cells in the G2/M phase
- Number of cells present in S phase (HUVECs [7]; JK-31 treatment): not a significant change
- Number of cells present in G1 (MCF-7 cells; JK-31 10 or 50 µM): significant increase in the number of cells present in G1
- Proportion of cells in G2/M phase (MCF-7 cells; [9]): significant decrease in the proportion of cells in the G2/M phase
- Number of cells present in S phase (MCF-7 cells; JK-31 treatment): significantly decreased

Compound: Nc1nc(Nc2ccc(S(N)(=O)=O)cc2)nn1C(=O)c1c(F)cccc1F [JNJ-7706621]
- More potent inhibitor of CDK1 than VEGFR2 [8]: ~17 fold
